Where a name gives a salt, the structure may show the parent alone.

For the first test, the system named is ATGL-KO iPSCs. Briefly: High throughput iPSC chemical screening, Oil Red O (ORO) lipid accumulation. On Z-score: test concentration or dose not given here. Format: cell-based, mouse. The following applies: glycolytic switch compounds.
`Clc1ccc(C(OCCN2CCCCC2)c2ccccc2)cc1` (stereo not drawn) [Cloperastine hydrochloride]: the “Rank in normalized ORO score from screen” value came out at 863.

With `CN(C)CCC=C1c2ccccc2C=Cc2ccccc21` [Cyclobenzaprine hydrochloride], the “Rank in normalized ORO score from screen” value worked out at 579.

`CC1=CC(=O)c2ccccc2C1=O` [Menadione]: the “Rank in normalized ORO score from screen” value is 517.

With `CN1CCC[C@@H]1CCO[C@](C)(c1ccccc1)c1ccc(Cl)cc1` [Clemastine fumarate], the “Rank in normalized ORO score from screen” value is listed as 197.

Staying with this test, now noted: normalized ORO level vs DMSO-treated cells; compound present during 7 days differentiation, 96-well; negative = decrease in lipid accumulation.
`Clc1ccc(C(OCCN2CCCCC2)c2ccccc2)cc1` (stereo not drawn) [Cloperastine hydrochloride]: the Z-score is given as 0.7661.

Take `CNCCCC12CCC(c3ccccc31)c1ccccc12` [Maprotiline hydrochloride]: the Z-score amounted to 0.03741.

`C[C@]1(OC(=O)/C=C/c2ccccc2)C[C@@H](O)[C@]2(O)C=CO[C@@H](O[C@@H]3O[C@H](CO)[C@@H](O)[C@H](O)[C@H]3O)[C@@H]21` [Harpagoside] yielded a Z-score of −1.174.

`CC1(C)S[C@@H]2[C@H](NC(=O)[C@H](N)c3ccccc3)C(=O)N2[C@H]1C(=O)O` [Ampicillin trihydrate] yielded a Z-score of −1.3793.

Regarding `CN(C)CCC=C1c2ccccc2C=Cc2ccccc21` [Cyclobenzaprine hydrochloride], the Z-score was −0.1421.

`Cc1onc(-c2c(F)cccc2Cl)c1C(=O)N[C@@H]1C(=O)N2[C@@H]1SC(C)(C)[C@@H]2C(=O)O` [Flucloxacillin sodium] yielded a Z-score of 0.5241.

Compound `C[C@@H]1C[C@@H]([C@H](O)CC2CC(=O)NC(=O)C2)C(=O)[C@@H](C)C1` [Cycloheximide] displayed a Z-score of 56.1385.

For `OCc1cc(C(O)CNCCCCCCOCCCCc2ccccc2)ccc1O` (stereo not drawn) [Salmeterol], the Z-score is recorded as 0.4502.

In turn, `CC1COc2c(N3CCN(C)CC3)c(F)cc3c(=O)c(C(=O)O)cn1c23` (stereo not drawn) [Ofloxacin] gave a Z-score of 0.7623.

`COc1ccc2c(c1)C(=O)N(CCc1ccc(S(=O)(=O)NC(=O)NC3CCCCC3)cc1)C(=O)C2(C)C` [Gliquidone] showed a Z-score of −0.9495.

As to `C[N+]1(C)CCCC(OC(=O)C(O)(c2ccccc2)c2ccccc2)C1` (stereo not drawn) [Mepenzolate bromide], the Z-score was −0.115.

Regarding `CC1=CC(=O)c2ccccc2C1=O` [Menadione], the Z-score is −0.29.

The compound `CC(NCCc1ccc(O)cc1)C(O)c1ccc(O)cc1` (stereo not drawn) [Ritodrine hydrochloride] registered a Z-score of 0.3787.

Carbinoxamine maleate salt gave a Z-score of 0.218.

In the case of `NC(N)=NOCC[C@H](N)C(=O)O.O.O=S(=O)(O)O` [Canavanine sulfate monohydrate (L,+)], the Z-score is on record as −0.5687.

`C#C[C@]1(O)CC[C@H]2[C@@H]3CCC4=C(CCC(=O)C4)[C@H]3CC[C@@]21C` [Norethynodrel] gave a Z-score of −0.7872.

Compound `C[N+](C)(C)CCCCCCCCCC[N+](C)(C)C` [Decamethonium bromide] showed a Z-score of −0.0864.

As to `CC(C)(Oc1ccc(CCNC(=O)c2ccc(Cl)cc2)cc1)C(=O)O` [Bezafibrate], the Z-score is on record as −0.2571.

`C(#CCN1CCCC1)CN1CCCC1.Cl.Cl` [Tremorine dihydrochloride] had a Z-score of 0.3583.

`Cc1ncc(CO)c(CO)c1O.Cl` [Pyridoxine hydrochloride]: the Z-score stood at 1.366.

`CS(=O)(=O)Nc1ccc([N+](=O)[O-])cc1Oc1ccccc1` [Nimesulide] showed a Z-score of −1.0153.

Take `CC(=O)N(O)CCCCCNC(=O)CCC(=O)N(O)CCCCCNC(=O)CCC(=O)N(O)CCCCCN` [Deferoxamine mesylate]: the Z-score is given as 12.8786.

In turn, Clofilium tosylate returned a Z-score of 13.6063.

For the compound `CC(C)(C)NC[C@H](O)COc1cccc2c1CCCC2=O.Cl` [(−)-Levobunolol hydrochloride], the Z-score was −0.5665.

On to `COc1ncnc(NS(=O)(=O)c2ccc(N)cc2)c1OC` [Sulfadoxine], for which the Z-score is recorded as −0.1202.

On to `Cc1ncc([N+](=O)[O-])n1CCO` [Metronidazole], for which the Z-score is listed as 0.716.

The compound `C[C@]12CC[C@@H]3c4ccc(O)cc4CC[C@H]3[C@@H]1C[C@@H](O)[C@@H]2O` [Estriol] displayed a Z-score of 0.06999.

`Oc1c(I)cc(Cl)c2cccnc12` [Clioquinol] displayed a Z-score of −1.5195.

Regarding `O=c1cc(-c2ccc(O)cc2)oc2c([C@@H]3O[C@H](CO)[C@@H](O)[C@H](O)[C@H]3O)c(O)cc(O)c12` [Vitexin], the Z-score is −0.0089.

`Cc1ccc(Cl)c(Nc2ccccc2C(=O)O)c1Cl` registered a Z-score of −1.2044.

With `COc1c(O)cc2c(c1O)[C@@H]1O[C@H](CO)[C@@H](O)[C@H](O)[C@H]1OC2=O` [Bergenin monohydrate], the Z-score is −0.7293.

`c1ccc2c(c1)CCCC2C1=NCCN1` (stereo not drawn) [Tetrahydrozoline hydrochloride] displayed a Z-score of −0.9102.

For the compound `CN(C)Cc1c[nH]c2ccccc12` [Gramine], the Z-score was found to be 1.618.

`CCCCOC(=O)c1ccc(N)cc1` [Butamben] came in with a Z-score of 0.2903.

`c1coc(CNc2ncnc3nc[nH]c23)c1` [6-Furfurylaminopurine] yielded a Z-score of 0.2192.

The compound `CC(C)[N+]1(C)[C@@H]2CC[C@H]1CC(OC(=O)C(CO)c1ccccc1)C2.[Br-]` (stereo partly drawn) [Ipratropium bromide] had a Z-score of −0.1032.

Compound `CN(C)C/C=C(/c1ccc(Br)cc1)c1cccnc1` [Zimelidine dihydrochloride monohydrate] had a Z-score of −0.7577.

On to `CC(=O)NC1CCSC1=O` (racemic) [N-Acetyl-DL-homocysteine Thiolactone], for which the Z-score is listed as 0.1772.

Consider `CN1CCc2c(c3ccccc3n2Cc2ccccc2)C1.O=S(=O)(O)c1cccc2c(S(=O)(=O)O)cccc12` [Mebhydroline 1,5-naphtalenedisulfonate], for which the Z-score was 0.4999.

The compound `CCOC(=O)c1cncn1[C@H](C)c1ccccc1` [Etomidate] yielded a Z-score of 0.2274.

Take `Cc1cc(C(=O)NNCc2ccccc2)no1` [Isocarboxazid]: the Z-score was found to be 1.91.

Consider `C[C@@H](O)[C@H]1C(=O)N2C(C(=O)O)=C(SCCN=CN)C[C@H]12` [Imipenem], for which the Z-score is listed as −0.7436.

In the case of `Nc1c(Br)cc(Br)cc1CN[C@H]1CC[C@H](O)CC1` [Ambroxol hydrochloride], the Z-score was −0.9433.

Turning to `CC(=O)[C@H]1CC[C@H]2[C@@H]3CCC4=CC(=O)CC[C@]4(C)[C@H]3CC[C@]12C` [Progesterone], the Z-score came to 2.344.

`COc1ccc(C[C@H](N)C(=O)N[C@H]2[C@@H](O)[C@H](n3cnc4c(N(C)C)ncnc43)O[C@@H]2CO)cc1` [Puromycin dihydrochloride]: the Z-score was found to be 74.4112.

Take `COC(=O)C1=C(C)NC(C)=C(C(=O)OC(C)C)C1c1cccc2nonc12` (stereo not drawn) [Isradipine]: the Z-score was found to be 0.2737.

Regarding `O=C(O)CN(CCN(CC(=O)O)CC(=O)O)CCN(CC(=O)O)CC(=O)O` [Pentetic acid], the Z-score was 0.9077.

Consider `C[N+](C)(C)CCCCCC[N+](C)(C)C.O.O.[Br-].[Br-]` [Hexamethonium dibromide dihydrate], for which the Z-score is listed as −0.5997.

Regarding `O=C(O)CCc1nc(-c2ccccc2)c(-c2ccccc2)o1` [Oxaprozin], the Z-score is −1.009.

`CC(C(=O)O)c1cccc(C(=O)c2ccccc2)c1` (stereo not drawn) [Ketoprofen]: the Z-score is on record as −0.219.

In turn, `Cl.N=C(N=C(N)N)N1CCOCC1` [Moroxidine hydrochloride] registered a Z-score of 0.05075.

The compound `COC(=O)[C@H]1[C@H]2C[C@@H]3c4[nH]c5cc(OC)ccc5c4CCN3C[C@H]2C[C@@H](OC(=O)/C=C/c2cc(OC)c(OC)c(OC)c2)[C@@H]1OC` [Rescinnamin] showed a Z-score of 1.097.

Consider `CN1CCC[C@@H]1CCO[C@](C)(c1ccccc1)c1ccc(Cl)cc1` [Clemastine fumarate], for which the Z-score is on record as −1.0269.

Compound `NC(CO)C(=O)NNCc1ccc(O)c(O)c1O` (stereo not drawn) [Benserazide hydrochloride] registered a Z-score of −0.638.

The compound `COc1cc2nc(N(C)CCCNC(=O)C3CCCO3)nc(N)c2cc1OC` (stereo not drawn) [Alfuzosin hydrochloride] gave a Z-score of 0.4534.

`O.O=C1C(O)=C(O)C(=O)C(O)=C1O` [Tetrahydroxy-1,4-quinone monohydrate] registered a Z-score of −1.5885.

Compound `C/C=C1/C[N@+]2(C)CC[C@]34C(=C(C=O)[C@H]1C[C@@H]32)Nc1ccccc14.[Cl-]` [Fluorocurarine chloride] returned a Z-score of −1.1648.

On to `Nc1ccc(S(=O)(=O)Nc2cnc3ccccc3n2)cc1` [Sulfaquinoxaline sodium salt], for which the Z-score was 0.579.

In the case of `CO/N=C(\C(=O)N[C@@H]1C(=O)N2C(C(=O)O)=C(C[N+]3(C)CCCC3)CS[C@H]12)c1csc(N)n1` [Cefepime hydrochloride], the Z-score is reported as 1.172.

`O=C1C[C@@H](c2ccc(O)cc2)Oc2cc(O)cc(O)c21` [Naringenine] registered a Z-score of 1.336.

In the case of `C#C[C@]1(O)CC[C@H]2[C@@H]3CCC4=CC(=O)CC[C@@H]4[C@H]3CC[C@@]21C` [Norethindrone], the Z-score is listed as −0.6688.

The compound `CN1[C@@H]2C[C@@H](OC(=O)[C@H](CO)c3ccccc3)C[C@H]1[C@@H]1O[C@@H]12` [Scopolamine hydrochloride] gave a Z-score of 0.9672.

For `Nc1ccc(S(=O)(=O)Nc2ncccn2)cc1` [Sulfadiazine], the Z-score is reported as 0.09783.

`CC(C(=O)O)c1ccc(C(=O)c2cccs2)cc1` (stereo not drawn) [Suprofen] registered a Z-score of −0.7501.

In turn, `C[C@@H]1[C@H](O)[C@@H](C)/C=C/C=C/C=C/C=C/C=C/C=C/C=C/[C@H](O[C@@H]2O[C@H](C)[C@@H](O)[C@H](N)[C@@H]2O)C[C@@H]2O[C@](O)(C[C@@H](O)C[C@@H](O)[C@H](O)CC[C@@H](O)C[C@@H](O)CC(=O)O[C@H]1C)C[C@H](O)[C@H]2C(=O)O` [Amphotericin B] displayed a Z-score of 0.5223.

The compound `COc1cc(NC(C)CCCN)c2ncccc2c1` (stereo not drawn) [Primaquine diphosphate] registered a Z-score of 5.51.

For the compound `Cc1c(NC(C)C)c(=O)n(-c2ccccc2)n1C.Cl` [Isopyrin hydrochloride], the Z-score was found to be 0.0325.

For the compound `CCOc1ccc2ccccc2c1C(=O)N[C@@H]1C(=O)N2[C@@H]1SC(C)(C)[C@@H]2C(=O)O` [Nafcillin sodium salt monohydrate], the Z-score was −0.1498.

The values are drawn from patent publication US9393221B2, “Methods and compounds for reducing intracellular lipid storage” (THE GENERAL HOSPITAL CORPORATION, priority 2011, dated 2016).
